# Results taken from PubChem BioAssay AID1963845 (Molecular Pharmacology Branch, DTP, NCI, 2024).
# System: 429239-143-T-J1-PDC complex spheroid viability
# Experiment: Anticancer human tumor 429239-143-T-J1-PDC patient-derived small cell lung carcinoma cell line growth inhibition [POLQ]
# Settings: for IC50: curve of first compound; for viability, T/C: stronger effect = lower value
# Summary of the method: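 PDC + HUVEC + MSC complex spheroids; POLQ inhibitors ± partner drugs; top conc. at/near clinical Cmax, else 10 microM (SN-38 1 microM), half-log dilutions; 37 degrees C, 5% CO2.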
# [1] = second compound 0.0316 µM, first compound 0.0316 µM
# [2] = second compound 0.0316 µM, first compound 0.1 µM
# [3] = second compound 0.0316 µM, first compound 0.316 µM
# [4] = second compound 0.0316 µM, first compound 1 µM
# [5] = second compound 0.0316 µM, first compound 3.16 µM
# [6] = second compound 0.0316 µM, first compound 10 µM
# [7] = second compound 0.1 µM, first compound 0.0316 µM
# [8] = second compound 0.1 µM, first compound 0.1 µM
# [9] = second compound 0.1 µM, first compound 0.316 µM
# [10] = second compound 0.1 µM, first compound 1 µM
# [11] = second compound 0.1 µM, first compound 3.16 µM
# [12] = second compound 0.1 µM, first compound 10 µM
# [13] = second compound 0.316 µM, first compound 0.0316 µM
# [14] = second compound 0.316 µM, first compound 0.1 µM
# [15] = second compound 0.316 µM, first compound 0.316 µM
# [16] = second compound 0.316 µM, first compound 1 µM
# [17] = second compound 0.316 µM, first compound 3.16 µM
# [18] = second compound 0.316 µM, first compound 10 µM
# [19] = second compound 1 µM, first compound 0.0316 µM
# [20] = second compound 1 µM, first compound 0.1 µM
# [21] = second compound 1 µM, first compound 0.316 µM
# [22] = second compound 1 µM, first compound 1 µM
# [23] = second compound 1 µM, first compound 3.16 µM
# [24] = second compound 1 µM, first compound 10 µM
# [25] = second compound 3.16 µM, first compound 0.0316 µM
# [26] = second compound 3.16 µM, first compound 0.1 µM
# [27] = second compound 3.16 µM, first compound 0.316 µM
# [28] = second compound 3.16 µM, first compound 1 µM
# [29] = second compound 3.16 µM, first compound 3.16 µM
# [30] = second compound 3.16 µM, first compound 10 µM
# [31] = second compound 10 µM, first compound 0.0316 µM
# [32] = second compound 10 µM, first compound 0.1 µM
# [33] = second compound 10 µM, first compound 0.316 µM
# [34] = second compound 10 µM, first compound 1 µM
# [35] = second compound 10 µM, first compound 3.16 µM
# [36] = second compound 10 µM, first compound 10 µM
# 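Further: luminescence signal used as surrogate measure of viable cells; spheroids exposed to compounds for seven days before readout.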
# 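Wherever viability, T/C is given: 100% = DMSO vehicle control viability as luminescence relative to vehicle.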
structure (smiles),measurement,setting,value
COc1cc2cc(C(=O)CCC(=O)O)sc2cc1OC + Cc1cccc(N(C)C(=O)C2C(O)CCN2c2nc(C)cc(C(F)(F)F)c2C#N)c1,IC50,second compound 0.0316 µM,> 10 µM
same,IC50,second compound 0.1 µM,> 10 µM
same,IC50,second compound 0.316 µM,> 10 µM
same,IC50,second compound 1 µM,> 10 µM
same,IC50,second compound 3.16 µM,> 10 µM
same,IC50,second compound 10 µM,> 10 µM
same,"viability, T/C",[1],103%
same,"viability, T/C",[2],114%
same,"viability, T/C",[3],97.8%
same,"viability, T/C",[4],106%
same,"viability, T/C",[5],109%
same,"viability, T/C",[6],89.5%
same,"viability, T/C",[7],96.1%
same,"viability, T/C",[8],97.9%
same,"viability, T/C",[9],109%
same,"viability, T/C",[10],99.4%
same,"viability, T/C",[11],94.4%
same,"viability, T/C",[12],101%
same,"viability, T/C",[13],109%
same,"viability, T/C",[14],118%
same,"viability, T/C",[15],99.9%
same,"viability, T/C",[16],106%
same,"viability, T/C",[17],96%
same,"viability, T/C",[18],90.1%
same,"viability, T/C",[19],99.8%
same,"viability, T/C",[20],99.1%
same,"viability, T/C",[21],94.1%
same,"viability, T/C",[22],115%
same,"viability, T/C",[23],117%
same,"viability, T/C",[24],91.2%
same,"viability, T/C",[25],108%
same,"viability, T/C",[26],96.3%
same,"viability, T/C",[27],103%
same,"viability, T/C",[28],105%
same,"viability, T/C",[29],115%
same,"viability, T/C",[30],101%
same,"viability, T/C",[31],104%
same,"viability, T/C",[32],91.3%
same,"viability, T/C",[33],99.3%
same,"viability, T/C",[34],120%
same,"viability, T/C",[35],110%
same,"viability, T/C",[36],97.7%
COc1ccc([C@@H](O)c2cc(-c3ncnc4cc(N5CCOCC5)ccc34)c(F)cc2Cl)nn1 + Cc1cccc(N(C)C(=O)C2C(O)CCN2c2nc(C)cc(C(F)(F)F)c2C#N)c1,IC50,second compound 0.0316 µM,3.25 µM
same,IC50,second compound 0.1 µM,2.79 µM
same,IC50,second compound 0.316 µM,2.48 µM
same,IC50,second compound 1 µM,3.32 µM
same,IC50,second compound 3.16 µM,2.88 µM
same,IC50,second compound 10 µM,2.49 µM
same,"viability, T/C",[1],103%
same,"viability, T/C",[2],95.7%
same,"viability, T/C",[3],94.4%
same,"viability, T/C",[4],70.4%
same,"viability, T/C",[5],53.5%
same,"viability, T/C",[6],10.8%
same,"viability, T/C",[7],101%
same,"viability, T/C",[8],107%
same,"viability, T/C",[9],106%
same,"viability, T/C",[10],80.7%
same,"viability, T/C",[11],47.3%
same,"viability, T/C",[12],9.36%
same,"viability, T/C",[13],105%
same,"viability, T/C",[14],94.5%
same,"viability, T/C",[15],102%
same,"viability, T/C",[16],90.1%
same,"viability, T/C",[17],39.2%
same,"viability, T/C",[18],14.3%
same,"viability, T/C",[19],105%
same,"viability, T/C",[20],95.9%
same,"viability, T/C",[21],98.7%
same,"viability, T/C",[22],82.3%
same,"viability, T/C",[23],51.9%
same,"viability, T/C",[24],9.82%
same,"viability, T/C",[25],99.5%
same,"viability, T/C",[26],98.8%
same,"viability, T/C",[27],97.2%
same,"viability, T/C",[28],79.5%
same,"viability, T/C",[29],47.7%
same,"viability, T/C",[30],8.69%
same,"viability, T/C",[31],122%
same,"viability, T/C",[32],86.7%
same,"viability, T/C",[33],89.5%
same,"viability, T/C",[34],64.3%
same,"viability, T/C",[35],57.1%
same,"viability, T/C",[36],8.38%
